This is an account of results in PMC9181915, “Synthesis and Anti-Neuroinflammatory Activity of 1,7-diphenyl-1,4-heptadien-3-ones in LPS-Stimulated BV2 Microglia Via Inhibiting NF-κB/MAPK Signaling Pathways” (Molecules, 2022).

As a reminder, the inhibition is the change of the read-out against control, counted positive when it falls. As usually defined, the viability is a read-out of living cells in per cent, often relative to untreated cells. For orientation: melting point means the temperature, or range, at which the solid turns liquid. The IC50 is the concentration that gives 50% inhibition.

In data set [1] the test system is LPS-induced NO release in BV2 cells. Nature of the data set: Inhibition of LPS-induced NO release in BV2 cells. Conditions: Mus musculus, BV-2; for inhibition at 1 µM / inhibition at 3 µM: pretreated 1 h, then LPS 1 μg/mL for 24 h, BV2 cells. Format: cell-based. As to the method:
(§1) The BV2 microglial cells were purchased from the China Center for Type Culture Collection, CCTCC (Wuhan, Hubei). BV2 microglia cells were incubated in DMEM media supplemented with 10% (v/v) FBS, 100 U/mL penicillin G and […] streptomycin at 37 °C with 5% CO2.
Nitrite, a stable product of nitric oxide, was used to assess NO production. To study the effects of the compounds on NO production, BV2 microglia cells in the logarithmic phase were plated at 1 × 10^5 cells/well in a 24-well microplate and incubated in DMEM medium (10% FBS) overnight. The cells were pretreated with various concentrations of the test compounds for 1 h and further co-cultured with 1 μg/mL LPS and 5% CO2 for 24 h in a 37 °C incubator; then, the supernatant was taken and stored at −20 °C for NO detection. The target compound and LPS were configured with DMEM medium (2% FBS). The determination of NO was carried out according to the instructions. Unpretreated and unstimulated BV2 microglia cells were conducted as the blank control group. The absorbance value was determined at 540 nm, and the corresponding NO content was calculated by using the standard curve. The NO inhibitory rate of the various concentrations of agents in BV2 cells was calculated as per the following formula:Inhibition rate (%) = (LPS(NO concentration) − sample(NO concentration))/(LPS(NO concentration) − negative control(NO concentration)) × 100%.

Data set [2] can be described thus: MTT cell viability assay in BV2 microglia cells. To be noted: mouse, mean ± SD, n = 3. The class given is cell-based. The procedure:
as §1
Cell viability assays were evaluated using a 3-(4,5-dimethylthiazol-2-yl)-2,5-diphenyltetrazolium bromide (MTT) assay. BV2 microglia cells were seeded in 96-well plates at a density of 1.6 × 10^5 cells/well in complete medium and incubated for 24 h. Then, the culture medium was sucked and discarded, and sterile PBS was added for washing, and then PBS was removed. Then the cells were treated with different concentrations of target compounds for 24 h. An amount equal to 100 μL of MTT was added to each well and the cells were further incubated for 2–4 h. An amount equal to 150 μL of DMSO was added into a 96-well plate and vibrated with micro-oscillator for 10 min. The optical density (A) was measured at […] on a microplate reader. The inhibitory rate of the various concentrations of agents in BV2 cells was calculated using the following formula:Cell viability (%) = [A492 (sample) − A492 (blank)]/[A492 (control) − A492 (blank)] × 100%
On the technique in general: Tetrazolium dyes change colour on reduction, which living cells bring about.

Regarding `O=C(/C=C/CCc1ccc(O)cc1)/C=C/c1ccc(O)cc1` [CU-1, (1E,4E)-1,7-bis(4-hydroxyphenyl)-1,4-heptadien-3-one], in data set [1], the inhibition at 1 µM is 0%. In data set [2], the viability at 24 h, 1 µM was 88.07 ± 0.19%; the viability at 24 h, 3 µM worked out at 49.84 ± 0.27%; the viability at 24 h, 10 µM is 23.7 ± 0.38%.
Regarding `COc1ccc(/C=C/C(=O)/C=C/CCc2ccc(OC)c(OC)c2)cc1OC` [CU-2, (1E,4E)-1,7-bis(3,4-dimethoxyphenyl)-1,4-heptadien-3-one], the melting point lay in the range of 97 to 99 °C. In data set [1], the inhibition at 1 µM came out at 0%. Also, in data set [2], the viability at 24 h, 1 µM is 76.92 ± 0.19%; the viability at 24 h, 3 µM turned out to be 49.2 ± 0.92%; the viability at 24 h, 10 µM amounted to 10.6 ± 1.13%.
For the compound `COc1ccc(/C=C/C(=O)/C=C/CCc2ccccc2)cc1` [CU-3, (1E,4E)-7-phenyl-1-(4-methoxyphenyl)-1,4-heptadien-3-one], the melting point was in the range of 48 to 50 °C. Also, in data set [1], the inhibition at 3 µM was 35.2%. Moreover, in data set [2], the viability at 24 h, 1 µM came out at 106.7 ± 0.14%; the viability at 24 h, 3 µM is 101.55 ± 0.01%; the viability at 24 h, 10 µM was 98.5 ± 0.01%.
In turn, `COc1cc(/C=C/C(=O)/C=C/CCc2ccccc2)cc(OC)c1OC` [CU-4, (1E,4E)-7-phenyl-1-(3,4,5-trimethoxyphenyl)-1,4-heptadien-3-one] yielded a melting point of 95 to 97 °C. Further, the inhibition at 1 µM in data set [1] stood at 3.1%. In addition, in data set [2], the viability at 24 h, 1 µM is 107.23 ± 0.09%; the viability at 24 h, 3 µM worked out at 73.92 ± 0.3%; the viability at 24 h, 10 µM came out at 16.6 ± 0.45%.
Taken in the same sequence, the figures for `O=C(/C=C/CCc1ccccc1)/C=C/c1ccccc1O` [CU-5, (1E,4E)-1-(2-hydroxyphenyl)-7-phenyl-1,4-heptadien-3-one] were 134 to 136 °C, 0%, 95.68 ± 0.11%, 77.39 ± 0.3% and 15.9 ± 0.61%.
`O=C(/C=C/CCc1ccccc1)/C=C/c1cccc(O)c1` [CU-6, (1E,4E)-1-(3-hydroxyphenyl)-7-phenyl-1,4-heptadien-3-one] gave a melting point of 94 to 96 °C. Moreover, the inhibition at 3 µM in data set [1] turned out to be 22.1%. In addition, in data set [2], the viability at 24 h, 1 µM came to 106.85 ± 0.1%; the viability at 24 h, 3 µM worked out at 100.07 ± 0.01%; the viability at 24 h, 10 µM is 101.56 ± 0.03%.
Regarding `O=C(/C=C/CCc1ccccc1)/C=C/c1ccc(O)cc1` [CU-7, (1E,4E)-1-(4-hydroxyphenyl)-7-phenyl-1,4-heptadien-3-one], the melting point was in the range of 121 to 123 °C. For the same compound, in data set [1], the inhibition at 1 µM was 0%. For the same compound, in data set [2], the viability at 24 h, 1 µM was 93.46 ± 0.35%; the viability at 24 h, 3 µM is 52.8 ± 0.5%; the viability at 24 h, 10 µM is 14.3 ± 0.7%.
In the case of `COc1ccc(/C=C/C(=O)/C=C/CCc2ccccc2)cc1O` [CU-8, (1E,4E)-1-(3-hydroxy-4-methoxyphenyl)-7-phenyl-1,4-heptadien-3-one], the melting point lay within 72 to 74 °C. Also, the inhibition at 3 µM in data set [1] turned out to be 18.8%. Besides, in data set [2], the viability at 24 h, 1 µM was 101.18 ± 0.04%; the viability at 24 h, 3 µM worked out at 97.4 ± 0.07%; the viability at 24 h, 10 µM was 18.2 ± 0.86%.
Taken in the same sequence, the figures for `COc1cc(/C=C/C(=O)/C=C/CCc2ccccc2)ccc1O` [CU-9, (1E,4E)-1-(4-hydroxy-3-methoxyphenyl)-7-phenyl-1,4-heptadien-3-one] were 114 to 116 °C, 7.52%, 99.38 ± 0.01%, 94.65 ± 0.07% and 14.8 ± 0.75%.
In the case of `O=C(/C=C/CCc1ccccc1)/C=C/c1ccc(Cl)cc1` [CU-10, (1E,4E)-1-(4-chlorophenyl)-7-phenyl-1,4-heptadien-3-one], the melting point lay in the range of 70 to 72 °C. Further, the inhibition at 3 µM in data set [1] is 0%. In data set [2], the viability at 24 h, 1 µM is 95.54 ± 0.03%; the viability at 24 h, 3 µM was found to be 95.27 ± 0.16%; the viability at 24 h, 10 µM was 48.7 ± 2.93%.
The matching figures for `Cc1ccc(CC/C=C/C(=O)/C=C/c2ccc(O)cc2)cc1` [CU-11, (1E,4E)-1-(4-hydroxyphenyl)-7-(p-tolyl)-1,4-heptadien-3-one]: 132 to 134 °C, 0%, 99.17 ± 0.01%, 91.61 ± 0.09% and 11.2 ± 0.56%.
As for `COc1cc(CC/C=C/C(=O)/C=C/c2ccc(O)cc2)ccc1O` [CU-12, (1E,4E)-7-(4-hydroxy-3-methoxyphenyl)-1-(4-hydroxyphenyl)-1,4-heptadien-3-one], the inhibition at 1 µM in data set [1] worked out at 0%. Further, in data set [2], the viability at 24 h, 1 µM was determined as 92.03 ± 0.29%; the viability at 24 h, 3 µM was 75.55 ± 0.17%; the viability at 24 h, 10 µM came out at 12.7 ± 0.59%.
On to `COc1ccc(CC/C=C/C(=O)/C=C/c2ccc(O)cc2)cc1` [CU-13, (1E,4E)-1-(4-hydroxyphenyl)-7-(4-methoxyphenyl)-1,4-heptadien-3-one], for which the melting point lay within 136 to 138 °C. The inhibition at 3 µM in data set [1] was 0%. In data set [2], the viability at 24 h, 1 µM amounted to 109.5 ± 0.27%; the viability at 24 h, 3 µM stood at 91.4 ± 0.32%; the viability at 24 h, 10 µM was 28.5 ± 1.3%.
`COc1ccc(/C=C/C(=O)/C=C/CCc2ccc(OC)cc2)cc1` [CU-14, (1E,4E)-1,7-bis(4-methoxyphenyl)-1,4-heptadien-3-one] gave a melting point of 65 to 67 °C. For the same compound, the inhibition at 3 µM in data set [1] stood at 49.7%. Also, in data set [1] (BV2 cells, 0.3, 1.0, 3.0 μM, LPS 1 μg/mL 24 h, mean ± SD, n = 3, read-out: IC50 to inhibit LPS-induced NO release), the IC50 stood at 2430 ± 450 nM. Further, in data set [2], the viability at 24 h, 1 µM was 97.96 ± 0.01%; the viability at 24 h, 3 µM was found to be 97.44 ± 0.03%; the viability at 24 h, 10 µM worked out at 18.06 ± 0.1%.
Turning to `O=C(/C=C/CCc1ccccc1)/C=C/c1ccccc1` [CU-15, (1E,4E)-1,7-diphenyl-1,4-heptadien-3-one], the inhibition at 3 µM in data set [1] came to 13.7%. Further, in data set [2], the viability at 24 h, 1 µM was determined as 104.99 ± 0.03%; the viability at 24 h, 3 µM came out at 103.11 ± 0.03%; the viability at 24 h, 10 µM came out at 84.19 ± 0.21%.
The compound `Cc1ccc(/C=C/C(=O)/C=C/CCc2ccccc2)cc1` [CU-16, (1E,4E)-7-phenyl-1-(p-tolyl)-1,4-heptadien-3-one] yielded a melting point of 46 to 48 °C. Also, the inhibition at 3 µM in data set [1] was found to be 15.4%. For the same compound, in data set [2], the viability at 24 h, 1 µM came out at 95 ± 0.08%; the viability at 24 h, 3 µM came out at 88.57 ± 0.28%; the viability at 24 h, 10 µM was 33.3 ± 1.2%.
Consider `COc1cc(/C=C/C(=O)/C=C/CCc2ccc(O)cc2)ccc1O` [CU-17, (1E,4E)-1-(4-hydroxy-3-methoxyphenyl)-7-(4-hydroxyphenyl)-1,4-heptadien-3-one], for which the melting point is 141 to 143 °C. Besides, the inhibition at 1 µM in data set [1] is 0%. In data set [2], the viability at 24 h, 1 µM came to 99.36 ± 0.01%; the viability at 24 h, 3 µM came to 80.72 ± 0.2%; the viability at 24 h, 10 µM amounted to 32.4 ± 0.67%.
As to `COc1ccc(/C=C/C(=O)/C=C/CCc2ccc(O)cc2)cc1O` [CU-18, (1E,4E)-1-(3-hydroxy-4-methoxyphenyl)-7-(4-hydroxyphenyl)-1,4-heptadien-3-one], the melting point was 152 to 154 °C. The inhibition at 1 µM in data set [1] was 2.15%. Besides, in data set [2], the viability at 24 h, 1 µM came out at 96.14 ± 0.03%; the viability at 24 h, 3 µM worked out at 46.6 ± 1.16%; the viability at 24 h, 10 µM turned out to be 8.63 ± 0.373%.
Taken in the same sequence, the figures for `COc1cc(/C=C/C(=O)/C=C/CCc2ccc(O)c(OC)c2)ccc1O` [CU-20, (1E,4E)-1,7-bis(4-hydroxy-3-methoxyphenyl)-1,4-heptadien-3-one] were 103 to 105 °C, 16.9%, 97.31 ± 0.03%, 51.8 ± 0.6% and 12.2 ± 0.21%.
Take `COc1ccc(CC/C=C/C(=O)/C=C/c2ccccc2)cc1OC` [CU-23, (1E,4E)-7-(3,4-dimethoxyphenyl)-1-phenyl-1,4-heptadien-3-one]: in data set [1], the inhibition at 3 µM worked out at 31.4%. In data set [2], the viability at 24 h, 1 µM was 106.5 ± 0.14%; the viability at 24 h, 3 µM stood at 100.85 ± 0.01%; the viability at 24 h, 10 µM was 12.3 ± 0.84%.
Taken in the same sequence, the figures for `COc1cc(CC/C=C/C(=O)/C=C/c2ccccc2)cc(OC)c1OC` [CU-27, (1E,4E)-1-phenyl-7-(3,4,5-trimethoxyphenyl)-1,4-heptadien-3-one] were 7.02%, 116.1 ± 0.44%, 101.31 ± 0.03% and 38.9 ± 1.19%.
